One experiment has as its system CD14. The experiment can be described thus: QRT-PCR in CD14/CD16-separated cell fractions, CD14 RNA. It counts as cell-based, human. The following applies: CD14/CD16++ macrophages, 10 μM MGBG, p=0.02. The procedure:
The changes induced by MGBG in different blood cell types were determined for osteopontin and adenosine deaminase and 7 other genes. For this experiment, blood samples were obtained from 6 healthy controls (3 men/3 women from 20 to 55 years of age) and mononuclear cells were isolated via Percoll gradient centrifugation. The cells were then incubated for 3 hours in RPMI media plus 10% fetal bovine serum at 37 C. At that point MGBG was added to 10 μM to half of each sample and then the cells were incubated at 37 C for 20 more hours. The cells were then bound to magnetic beads coated with antibodies to human CD16. Bound cells (CD16 expressing) were separated from unbound cells using an AutoMACs according to manufacturer's instructions (Miltenyi, Auburn Calif.). Then CD16+ cells are released from the magnetic beads and both the CD16+ and CD16− cells are combined with magnetic beads coated with antibodies to human CD14. Antibody bound and unbound cells were then separated using the AutoMACs machine. […] Cells that neither express CD16 nor CD14 (the −/− Cells). This is mostly T lymphocytes; 2. Cells that only express CD16. This includes contaminating granulocytes not removed by Percoll centrifugation and CD16+ monocytes with very low CD14 expression; 3. […] After separation, cells of each fraction are washed with PBS and the number of viable cells determined by trypan blue exclusion. […]

A further experiment deals with mononuclear cells. The experiment can be described thus: Microarray analysis, number of probes changed. Format: cell-based, human. The following applies: average signals, MGBG vs untreated samples. The procedure:
Blood samples were obtained from HIV infected patients (N=9) with positive viral load and reduced CD4 counts, and non-HIV infected, healthy controls (N=6). Blood was collected into heparin anticoagulant tubes and mononuclear cells were isolated by Percoll gradient centrifugation. The cells from each sample were split into 2: one-half receives MGBG at concentration of 10 μM and the other half received no treatment. All samples were then cultured overnight in RPMI media with 10% fetal bovine serum at 37° C. under non-adherent conditions. The next day cells were collected by centrifugation, washed one time with PBS, and lysed by resuspension in TRIZOL, and total RNA was prepared according to manufacturer's instructions (Invitrogen, Carlsbad, Calif.). […] The RNA was then amplified for microarray analysis using a 2 cycle amplification protocol according to the manufacturer's instructions (Affymetrix, Santa Clara, Calif.). The amplified RNAs were then hybridized to Human Genome U133 plus 2.0 microarrays (Affymetrix) and expression data was obtained using an Affymetrix scanner and GCOS protocols. Microarray data was analyzed with GeneSpring Microarray Suite. Results were normalized using a set of 100 probe sets determined by the manufacturer to have relatively invariant expression across most cell types.

In another experiment the test system is NBS1. The experiment can be described thus: Quantitative RT-PCR, unsorted mononuclear cells, NBS1. It counts as cell-based, human. The procedure: To evaluate the effect of MGBG on gene expression, blood samples were obtained from patients (N=18, 10 HIV-infected and 8 Healthy Controls). Mononuclear cells were isolated via Percoll gradient centrifugation. The cells were split into two tubes, one treated with 10 μM of MGBG and the other non-treated. The cells were then cultured overnight in RPMI media plus 10% fetal bovine serum at 37 C under non-adherent conditions, collected, lysed using Trizol solution, and total RNA prepared according to manufacturer's instructions (Invitrogen, Carlsbad, Calif.).
Approximately 200 ng of total RNA prepared from each sample was converted to cDNA using the First Strand cDNA Synthesis Kit for RT-PCR [AMV] kit (Roche Applied Diagnostics, Indianapolis, Ind.) according to manufacturer's instructions. Around 5 ng of cDNA sample was then used for PCR performed on a LightCycler (Roche Applied Diagnostics, Indianapolis, Ind.) using the LightCycler FastStart DNA Master SYBR Green I kit. PCR conditions are as follows: 1 cycle of denaturation at 95° C. for 10 minutes, followed by 45 cycles of 95° C. for 10 seconds, 68° C. for 10 seconds, and 72° C. for 16 seconds.
The sequences of gene-specific primers evaluated are listed below. All samples were also amplified with the human β-actin LightCycler-Primer set (Roche Diagnostics).

Experiment [1] has as its system CD14+ macrophages; CD16+/CD14− cells. The experiment can be described thus: Phenotypic analysis of cells targeted by MGBG. The note with it: increasing concentrations of MGBG. It counts as cell-based. The procedure:
Additionally, cells being targeted by MGBG were investigated. […] To elucidate the effects of MGBG and OPN on cell motility, migration assays were conducted. MGBG at 10 μM inhibited macrophage Osteopontin production from >200 ng/mL to nondetectable levels while simultaneously inhibiting HeLa cell invasion into a Matrigel matrix.

“And” between values parts separate entries of the source, which are not always exact repeats. Equal entries are not always repeated.

Consider `CC(/C=N/NC(=N)N)=N\NC(=N)N` [MGBG, 1,1′ [methylethanediylidene]dinitrilodiguanidine], for which the “CD14 RNA median signal relative to no MGBG” value in the experiment with CD14 was determined as 0.55. Moreover, in the experiment with mononuclear cells, the “probes down-regulated at least 1.5 fold” value was 489 probes and the “probes up-regulated at least 1.5 fold” value is 382 probes. The “Fold change NBS1 by QRT-PCR” value in the experiment on NBS1 (10 μM MGBG overnight, individual samples) is 1.68 fold and 1.25 fold and 1.35 fold and −1.56 fold and 2.07 fold and 3.51 fold (2×) and −1.09 fold and 1.04 fold and 4.08 fold and 2.31 fold and 1.14 fold and 1.27 fold and −4.35 fold and −8.51 fold and −2.51 fold and −1.89 fold and 3.63 fold. Further, in the experiment on NBS1 (10 μM MGBG, all samples), the “NBS1 AVERAGE” value is 1.65 fold, the “NBS1 MAX” value is reported as 4.08 fold and the “NBS1 MIN” value is listed as −8.51 fold. In experiment [1], the “levels of CD16+/CD14− cells” value is “did not affect” and the “yields of CD14+ macrophages” value is recorded as “decreasing yields”.

For the origin of these results see US9867794B2, “Regulation of osteopontin” (Pathologica LLC, priority 2007, dated 2018).
